From patent publication US5898069A, “Phosphate assay” (Medical Research Council, priority 1993, dated 1999) come the findings set out here.

Read-outs that look alike come from different tables or passages of the source.

Assay [1] concerns the target T1, MDCC-PBP (Escherichia coli, UniProt P0AG82, A222C).
T1 construct: A197 is located at position 197 numbering from the N-terminus of the mature PBP; made in house; host or cells: E. coli strain ANCC75, plasmid pSN5182/N, periplasm
The format is binding, E. coli. Here is the method:
The Pi dependent fluorescence change was measured for a variety of conditions at a single concentration of Pi (Table 2).
The solutions contained 2 μM MDCCPBP (except for [b] 10 μM and [c]
The fluorescence change was measured at 465 nm with excitation at
[a] The solution was preincubated with the Pi mop.

Assay [2] has as its target T1, MDCC-PBP. The assay can be described thus: Titration of arsenate in a solution of MDCC-PBP (fluorescence change). The note with it: read-out: dissociation constant. The format is binding, E. coli. From the text:
Because very small levels of Pi contamination can affect the observed change on adding Pi and because of variability in the protein activity, the maximum percent increase of fluorescence varies from 400-500%0 Although PBP is very specific for Pi (Luecke & Quiocho, 1990), it was to be used as a probe in the presence of other phosphate species, such as esters or purine nucleotides and so it was important to know at what levels these might interfere with Pi measurements. Several Pi analogues were also tested (Table 2) and only arsenate and vanadate produced significant increases. For a titration of arsenate in a solution of MDCC-PBP, the fluorescence change was used to obtain a dissociation constant of 3 μM. In all cases except arsenate, when subsequently Pi was added, the full fluorescent change was observed. The Pi dependent fluorescence change was measured for a variety of conditions at a single concentration of Pi (Table 2). The change is only slightly affected by pH (7-8) or ionic strength.

A further assay addresses T2, CPM-PBP (Escherichia coli, UniProt P0AG82, A222C).
T2 construct: A197 is located at position 197 numbering from the N-terminus of the mature PBP; made in house; host or cells: E. coli strain ANCC75, plasmid pSN5182/N, periplasm
The format is binding, E. coli. As for the experimental part: Analysis of the effects of Pi analogues and solution composition was performed as for MDCC-PBP.

Assay [3] concerns purine nucleoside phosphorylase. The assay can be described thus: Phosphorolysis of 7-methyl guanosine by purine nucleoside phosphorylase (Pi mop), absorbance change at 260 nm. The note with it: pH 8.0, 20 mM Tris.HCl, 1 μM MgCl2, 30° C. The format is biochemical, bacterial.

T1 sequence (P0AG82 26-346 A222C): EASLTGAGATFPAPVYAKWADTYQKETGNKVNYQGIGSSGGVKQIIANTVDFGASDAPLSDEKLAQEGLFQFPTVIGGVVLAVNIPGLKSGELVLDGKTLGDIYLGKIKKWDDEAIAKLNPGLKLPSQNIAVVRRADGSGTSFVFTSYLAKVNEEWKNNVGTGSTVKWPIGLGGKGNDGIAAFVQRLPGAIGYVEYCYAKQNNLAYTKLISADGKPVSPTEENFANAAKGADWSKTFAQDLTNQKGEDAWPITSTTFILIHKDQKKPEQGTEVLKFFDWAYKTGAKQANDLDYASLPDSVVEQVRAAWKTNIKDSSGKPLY
T2 sequence (P0AG82 26-346 A222C): as above

As to `O=[As]([O-])([O-])O.[Na+].[Na+]` [Sodium arsenate], the “% fluorescence increase” value at MDCC-PBP [1] (addition 100 μM, 2 μM MDCC-PBP, 20 mM PIPES pH 7.0) is listed as 313%; at CPM-PBP (addition 100 μM, 6 μM CPM-PBP, 10 mM Tris.HCl pH 8.0), 25%. The Kd on MDCC-PBP [2] turned out to be 3000 nM.
`O=P(O)(O)O` [Pi, inorganic phosphate]: the “% fluorescence increase” value at MDCC-PBP [1] (pH 7) is 430%; at CPM-PBP (pH 8) it was 65%. Further, in assay [3], the Km worked out at 34 µM.
